Reference: article PMC6270288, “Yellow Pigments, Fomitellanols A and B, and Drimane Sesquiterpenoids, Cryptoporic Acids P and Q, from Fomitella fraxinea and Their Inhibitory Activity against COX and 5-LO” (Molecules, 2013)

Experiments:
COX-1 = target: T1, COX-1 (Ovis aries, UniProt P05979); test: COX-1-catalyzed prostaglandin biosynthesis assay in vitro; format: biochemical, ram; settings: for inhibition at 10 µg/mL: 10 μg/mL, COX-1 from ram seminal vesicles; for IC50: triplicate five-point titration
T1 construct: isolated from ram seminal vesicles; purchased Cayman Chemical Company; host or cells: ram seminal vesicles (tissue isolate)
T1 sequence (P05979 25-600): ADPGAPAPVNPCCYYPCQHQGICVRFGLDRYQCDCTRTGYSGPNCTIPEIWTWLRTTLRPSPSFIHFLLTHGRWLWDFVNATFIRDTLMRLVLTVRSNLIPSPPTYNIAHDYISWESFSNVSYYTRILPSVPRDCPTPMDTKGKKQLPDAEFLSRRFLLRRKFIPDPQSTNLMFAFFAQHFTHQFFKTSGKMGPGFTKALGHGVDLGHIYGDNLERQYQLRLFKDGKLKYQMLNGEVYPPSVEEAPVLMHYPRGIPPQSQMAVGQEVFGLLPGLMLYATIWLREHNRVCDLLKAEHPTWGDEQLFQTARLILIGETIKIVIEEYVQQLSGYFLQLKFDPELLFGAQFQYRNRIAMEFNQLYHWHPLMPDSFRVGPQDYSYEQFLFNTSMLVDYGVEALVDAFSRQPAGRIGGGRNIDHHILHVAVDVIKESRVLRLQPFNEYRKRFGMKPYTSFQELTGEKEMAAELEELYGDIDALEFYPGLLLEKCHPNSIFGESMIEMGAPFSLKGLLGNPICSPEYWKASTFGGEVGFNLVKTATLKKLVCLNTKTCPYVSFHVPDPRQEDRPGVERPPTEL
Description: (§1) Experiments were performed according to Futaki et al. with modification. In brief, 200 U of COX-1 or COX-2 enzyme was suspended in 0.1 M Tris-HCl buffer (PH 7.5) containing hematin (1 μM) and phenol (2 mM), as co-factors. The reaction medium was preincubated with sample for 2 min at 37 °C, and 51.4 μM of […] arachidonic acid (Sigma, St. Louis, MO, USA) was added and incubated for 2 min at 37 °C. To terminate the reaction and extract PGE2, 400 μL of n-hexane/EtOAc (2:1, V/V) was added to the reaction mixture and the preparation was centrifuged at 2,000 rpm for 1 min. The organic solvent phase was discarded. The extraction procedure was repeated twice, then 50 μL EtOH was added to the aqueous phase, and the preparation was at 2,000 rpm for 1 min. The amount of PGE2 was measured by radioimmunoassay using a liquid scintillation counter. COX-1 (EC1.14.99.1, isolated from ram seminal vesicles; Cayman Chemical Company, Ann Arbor, MI, USA) and COX-2 (isolated from sheep placenta, purity 70%; Cayman Chemical Company) were used.

5-LO = target: T2, 5-LO (Rattus norvegicus, UniProt P12527); test: Measurement of RBL-1 5-lipoxygenase activity; format: biochemical; settings: RBL-1 cell homogenate; for inhibition at 10 µg/mL: 10 μg/mL; for IC50: triplicate five-point titration
T2 construct: RBL-1 cell homogenate (1.5 × 10^7 cells); endogenous in cells; host or cells: RBL-1 (rat basophilic leukemia-1) cell homogenate
T2 sequence (P12527 1-673): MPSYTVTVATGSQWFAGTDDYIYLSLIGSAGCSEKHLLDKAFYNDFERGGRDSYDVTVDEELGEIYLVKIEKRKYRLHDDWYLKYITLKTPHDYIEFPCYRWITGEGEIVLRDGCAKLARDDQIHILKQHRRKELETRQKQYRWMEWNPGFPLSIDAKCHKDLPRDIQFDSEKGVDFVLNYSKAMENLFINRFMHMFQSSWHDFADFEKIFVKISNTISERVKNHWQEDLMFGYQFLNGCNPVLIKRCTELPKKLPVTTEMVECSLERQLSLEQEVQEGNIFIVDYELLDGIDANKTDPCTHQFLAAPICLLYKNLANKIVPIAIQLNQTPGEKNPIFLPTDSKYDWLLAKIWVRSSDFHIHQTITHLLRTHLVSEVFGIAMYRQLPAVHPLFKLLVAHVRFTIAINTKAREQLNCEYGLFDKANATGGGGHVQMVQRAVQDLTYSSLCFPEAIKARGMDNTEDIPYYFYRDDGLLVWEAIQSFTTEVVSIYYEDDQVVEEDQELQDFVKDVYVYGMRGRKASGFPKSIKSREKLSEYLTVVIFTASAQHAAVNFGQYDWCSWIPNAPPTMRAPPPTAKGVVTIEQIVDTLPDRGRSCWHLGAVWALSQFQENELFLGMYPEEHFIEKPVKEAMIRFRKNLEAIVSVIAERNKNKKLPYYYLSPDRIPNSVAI
Description: The modified method of Blackman et al. was used. Rat basophilic leukemia-1 (RBL-1) cells were grown in RPMI-1640 medium containing 10% heat-inactivated newborn calf serum (NCS), penicillin 100 units/mL, and streptomycin […]. Cells were cultured at 37 °C in 5% CO2. The assay system (0.5 mL) consisted of 50 mM phosphate buffer (pH 7.4), the test compound, 2 mM CaCl2, 0.66 mM arachidonic acid, and RBL-1 cell homogenate (1.5 × 10^7 cells). Reaction mixtures were incubated at 37 °C for 3 min, and then MeOH (0.5 mL) was added to terminate the reaction. The mixture was centrifuged to remove the precipitated proteins, 5-HETE in the supernatant was analyzed by HPLC. The mixture was eluted through a Cosmosil 5C18 column (4.6 × 150 mm) at room temperature with 85% CH3CN at 235 nm.

COX-2 = target: T3, COX-2 (Ovis aries, UniProt P79208); test: COX-2-catalyzed prostaglandin biosynthesis assay in vitro; format: biochemical, sheep; settings: for inhibition at 10 µg/mL: 10 μg/mL, COX-2 from sheep placenta
T3 construct: isolated from sheep placenta, purity 70%; purchased Cayman Chemical Company; host or cells: sheep placenta (tissue isolate)
T3 sequence (P79208 17-603): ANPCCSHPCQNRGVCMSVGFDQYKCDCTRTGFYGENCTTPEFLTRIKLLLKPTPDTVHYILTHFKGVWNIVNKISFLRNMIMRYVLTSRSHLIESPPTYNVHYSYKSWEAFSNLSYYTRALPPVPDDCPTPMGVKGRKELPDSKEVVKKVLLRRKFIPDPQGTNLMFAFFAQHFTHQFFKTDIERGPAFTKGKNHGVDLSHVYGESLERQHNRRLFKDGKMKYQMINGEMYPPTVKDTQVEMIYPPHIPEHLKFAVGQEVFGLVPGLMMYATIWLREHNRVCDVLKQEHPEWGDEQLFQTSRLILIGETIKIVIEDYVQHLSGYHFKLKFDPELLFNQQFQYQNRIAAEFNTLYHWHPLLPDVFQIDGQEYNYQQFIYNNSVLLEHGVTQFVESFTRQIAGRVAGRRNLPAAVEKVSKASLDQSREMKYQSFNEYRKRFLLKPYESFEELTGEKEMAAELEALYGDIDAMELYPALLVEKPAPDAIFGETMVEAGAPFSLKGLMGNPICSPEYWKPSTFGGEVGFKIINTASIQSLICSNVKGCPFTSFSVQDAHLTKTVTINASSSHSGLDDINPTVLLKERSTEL
Description: as §1

Compound	inhibition at 10 µg/mL (COX-1)	IC50 (COX-1)	inhibition at 10 µg/mL (5-LO)	IC50 (5-LO)	inhibition at 10 µg/mL (COX-2)	inhibitory activities against COX-2 (in words) (COX-2)
CC(C)O[C@H]1Oc2ccc(O)c3c2[C@@]1(C)[C@H]1C(=O)C=C(CO)C1=C3 [Compound 1a, 5-hydroxy-7-hydroxymethyl-1-isopropoxy-9b-methyl-9a,9b-dihydro-H-2-oxa-cyclopenta[d]acenaphthylen-9-one]	90.5%	47.7 µM	84.7%	15.1 µM	7.5%	
C=C1CC[C@H]2[C@](C)(COC(C)=O)CCC[C@]2(C)[C@H]1CO[C@@H](C(=O)O)[C@H](CC(=O)O)C(=O)OC [Compound 3, Cryptoporic acid P]	40.2%		14.9%		1.7%	
C[C@]12c3c(ccc(O)c3C=C3C(CO)=CC(=O)[C@@H]31)O[C@@H]2O [Compound 1]				15.1 µM		not apparent

Results, then the compound that gave them:

inhibition at 10 µg/mL (COX-1)	IC50 (COX-1)	inhibition at 10 µg/mL (5-LO)	IC50 (5-LO)	inhibition at 10 µg/mL (COX-2)	inhibitory activities against COX-2 (in words) (COX-2)	Compound
66.5%	78.8 µM	50.1%	204 µM	10.3%		C=C1CC[C@H]2[C@](C)(COC(C)=O)CCC[C@]2(C)[C@H]1CO[C@@H](C(=O)OC)[C@H](CC(=O)O)C(=O)OC [Compound 4, Cryptoporic acid Q]
35.8%		28.9%		19%		C=C1CC[C@H]2[C@](C)(CO)CCC[C@]2(C)[C@H]1CO[C@@H](C(=O)O)[C@H](CC(=O)O)C(=O)OC [Compound 6, cryptoporic acid N]
